Assay results taken from US20050037436A1, “Test systems and the use thereof for identifying and characterizing compounds” (priority 2000, published 2005).

Assays:
[1] = test system: endogenous, natural muscarinic acetylcholine receptors; assay: Ca2+ imaging, carbachol stimulation of untransfected HEK-293 cells; type: cell-based, human; details: 1 mM carbachol; absence of BAY44-4400
[2] = molecular target: T1, mouse β2-adrenergic receptor (Mus musculus, UniProt P18762); assay: Ca2+ imaging of HEK-293 cells transfected with β2-R-GFP (control); type: cell-based; details: immediately after addition
T1 construct: was fused with a C-terminal EGFP tag by amplifying the full-length cDNA with the P117 mouse 2AR XhoI 5′ primer; expressed in transfected cells; host or cells: HEK-293, transient (pEGFP-N3)
Experimental: (§1) The intracellular free Ca^2+ concentration [Ca^2+]i was measured in COS-7 and HEK293 cells transiently transfected with the HC110-R-EGFP or β2-AR-EGFP construct using the calcium imaging method (see also FIG. 11). In each case 2×10^5 COS-7 and HEK293 cells were applied to a 42 mm cover glass coated with 1% gelatine in 55 mm tissue culture dishes with 5 ml of DMEM medium (with 10% FCS and pen/strep). The transfection took place with the aid of the non-liposomal transfection reagent FuGENE 6 (Roche Molecular Biochemicals, Mannheim). […] Constructs of the HC110-R full-length clone with a GFP tag fused in the correct reading frame, and the complete cDNA of the β2-adrenergic receptor which had likewise been provided with a GFP tag at the 3′ end, were transfected.
(§2) After the incubation, the cells loaded with Fura-2/AM were examined under an inverted microscope (Zeiss, Axiovert, Germany) and, in parallel with this, in a digital imaging fluorescence microscope (PTI) and differentiated into transfected and untransfected cells at a wavelength of 440 and 490 nm respectively. On average, 5-7 transfected and non transfected cells were selected by fixing an ROI (region of interest). The extinction was measured at 340 nm (calcium-bound Fura-2/AM) and 380 nm (free Fura-2/AM), and the emission was measured at 510 nm. Evaluation took place using the Image Master 1.x software by forming the quotient of 340:510 nm, 380:510 nm and the ratio of 340/380:510 nm (background corrected images) as a function of the agent added.
Agents were always added 6 min after starting the measurement by removing an appropriate volume of Na^+ HBS buffer and pipetting the agent directly into the sample vessel for a further 30 to 50 min. The total volume in the sample vessel was constant at 1.5 ml throughout the experiment. […] Addition of CdCl2 and nifedipine took place immediately at the start of the experiment and before addition of α-LTX, and EGTA was added both at the start of the experiment and 4 min after the addition of α-LTX. […]
The data were analyzed using the Excel 98 table calculation programme. […]

[3] = test system: HC110-R; type: cell-based, Haemonchus contortus
Experimental: as §1, §2
Agents were always added 6 min after starting the measurement by removing an appropriate volume of Na^+ HBS buffer and pipetting the agent directly into the sample vessel for a further 30 to 50 min. The total volume in the sample vessel was constant at 1.5 ml throughout the experiment. […] Addition of CdCl2 and nifedipine took place immediately at the start of the experiment and before addition of α-LTX, and EGTA was added both at the start of the experiment and 4 min after the addition of α-LTX. Dissolved α-LTX was present in a concentration of 300 nM in 50 mM tris-HCl, pH 8.0; BAY 44-4400 was initially dissolved in pure DMSO (stock solutions between 0.004 and 10 μg/ml). The stock solutions were adjusted to the required concentration in the Na^+ HBS buffer. The maximum amount of the active substance BAY 44-4400 which could be dissolved at a final concentration of 0.1% DMSO was found by setting up serial dilutions in Na^+ HBS.
The data were analyzed using the Excel 98 table calculation programme. The results are derived from at least 2-4 reproduced experiments on in each case 4-8 transfected and un-transfected cells.

[4] = test system: Heterakis spumosa

T1 sequence (P18762 whole entry, the tested form may be a part): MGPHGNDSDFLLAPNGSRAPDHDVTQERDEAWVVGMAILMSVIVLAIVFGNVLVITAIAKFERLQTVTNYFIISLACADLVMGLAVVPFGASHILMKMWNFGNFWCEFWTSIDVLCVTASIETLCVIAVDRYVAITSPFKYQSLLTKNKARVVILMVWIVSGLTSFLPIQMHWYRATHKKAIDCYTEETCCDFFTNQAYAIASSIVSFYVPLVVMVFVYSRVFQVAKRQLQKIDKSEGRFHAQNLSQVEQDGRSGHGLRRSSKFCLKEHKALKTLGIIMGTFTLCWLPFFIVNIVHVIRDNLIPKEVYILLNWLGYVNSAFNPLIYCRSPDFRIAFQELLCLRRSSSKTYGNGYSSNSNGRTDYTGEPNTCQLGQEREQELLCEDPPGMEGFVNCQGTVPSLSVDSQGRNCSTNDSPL

Compound: C[N+](C)(C)CCOC(N)=O.[Cl-] [carbachol, carbamylcholine chloride]
- carbachol-induced increase in [Ca2+]i [1]: 53+6.8 nM

Compound: CC(C)NCC(O)c1ccc(O)c(O)c1 (centres unmarked) [isoproterenol]
- Ca2+ response to isoproterenol [2]: significant Ca^2+ response

Compound: COC(=O)C1=C(C)NC(C)=C(C(=O)OC)C1c1ccccc1[N+](=O)[O-] [nifedipine]
- second α-LTX-induced increase in [Ca2+]i ([3]; 15 μM nifedipine): 30 ± 5.4 nM

Compound: C1CNCCN1 [piperazine]
- change in Ca2+ balance, piperazine alone ([3]; 10 μM piperazine, untransfected and HC110-R-GFP-transfected cells): no change in the Ca^2+ balance
- effect of piperazine on activity of PF1022A/BAY44-4400 [4]: synergistically enhances the effect of PF1022A/BAY44-4400
